From PubChem BioAssay (NCI) come the findings set out here.

Test systems include OVCAR-5 ovarian; SN12C renal; SW-620 colon; MOLT-4 leukemia; UO-31 renal; NCI/ADR-RES ovarian; SF-295 CNS; HCT-116 colon; MCF7 breast; U251 CNS; HT29 colon; SNB-19 CNS; HOP-92 NSCLC; MDA-MB-435; MDA-MB-231 breast; EKVX NSCLC; NCI-H522 lung.
Assay in all cases: growth of human tumour cells (NCI), 48 h

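Values below derive from 48-hour exposures of cells grown in 96-well plates, with endpoints linearly interpolated between the two concentrations bracketing the appropriate inhibition level. TGI: total growth inhibition.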

As for `C=C1CC(OC)(C(OC)C(=O)N[C@H]2OCO[C@H]3C2O[C@H](C[C@@H](COC)OC)C(C)(C)C3OC)O[C@H](C)[C@@H]1C` (some centres not stated), the TGI with OVCAR-5 ovarian is 4 µM; in the test on SN12C renal, greater than 47 µM; in the test with SW-620 colon it was 15 µM; in the test on MOLT-4 leukemia it was 1.88 µM; with UO-31 renal, 5.71 µM; with NCI/ADR-RES ovarian it was greater than 47 µM. Moreover, the TGI is 3.28 µM in the test on SF-295 CNS; 5.77 µM in the test on HCT-116 colon; greater than 47 µM in the test on MCF7 breast; 4.13 µM in the test with U251 CNS; 5.49 µM in the test with HT29 colon; 3.22 µM in the test with SNB-19 CNS. In addition, in the test on HOP-92 NSCLC, the TGI is 4.76 µM.
Consider `C/C(O)=C(\C=N\C(=S)N=Nc1c(O)[nH]c2ccccc12)C(=O)Nc1ccccc1C`, for which the TGI with OVCAR-5 ovarian, in the test on SN12C renal, in the test on MDA-MB-435, with SW-620 colon, with MDA-MB-231 breast and in the test on MOLT-4 leukemia was greater than 100 µM each time. Besides, the TGI with UO-31 renal, with NCI/ADR-RES ovarian, in the test on SF-295 CNS, in the test on HCT-116 colon, with U251 CNS and in the test on HT29 colon was greater than 100 µM throughout. Moreover, the TGI in the test on SNB-19 CNS, with HOP-92 NSCLC and with EKVX NSCLC was greater than 100 µM each time.
With `Cc1cc(O)c2c(c1)C(=O)c1c(c(O)cc(O)c1-c1c(O)cc(O)c3c1C(=O)c1cc(C)cc(O)c1C3=O)C2=O`, the TGI is 85 µM in the test with OVCAR-5 ovarian; 41.2 µM in the test with SN12C renal; 124 µM in the test on SW-620 colon; 50.8 µM in the test with MOLT-4 leukemia; 15.8 µM with UO-31 renal; 152 µM in the test on NCI/ADR-RES ovarian. Further, the TGI is 38.3 µM with SF-295 CNS; 33.7 µM with HCT-116 colon; 48.8 µM in the test on MCF7 breast; 59 µM in the test with NCI-H522 lung; 46 µM in the test on U251 CNS; 45 µM in the test on HT29 colon. Besides, the TGI amounted to 12.4 µM with SNB-19 CNS, 34.4 µM in the test with HOP-92 NSCLC and 34.9 µM in the test with EKVX NSCLC.
For `CCc1n[nH]c(=O)n1CC`, the TGI with OVCAR-5 ovarian, in the test on SN12C renal, in the test with MDA-MB-435, in the test with SW-620 colon, with MDA-MB-231 breast and in the test on MOLT-4 leukemia was greater than 100 µM throughout. The TGI with UO-31 renal, in the test with NCI/ADR-RES ovarian, in the test with SF-295 CNS, in the test on HCT-116 colon, in the test on MCF7 breast and in the test on NCI-H522 lung was greater than 100 µM throughout. The TGI in the test with U251 CNS, in the test with HT29 colon, in the test on SNB-19 CNS, in the test on HOP-92 NSCLC and in the test on EKVX NSCLC was greater than 100 µM each time.
Regarding `COc1ccc2c(c1)CCc1c-2[nH]c2cc3c(cc2c1=O)OCO3`, the TGI in the test with SN12C renal, in the test with SW-620 colon, in the test on MOLT-4 leukemia, with UO-31 renal, with NCI-H522 lung and in the test on U251 CNS was greater than 100 µM each time. Besides, the TGI in the test with HT29 colon, in the test on SNB-19 CNS, in the test on HOP-92 NSCLC and with EKVX NSCLC was greater than 100 µM in each case.
On to `Cc1cc(=O)oc2c1cc1ccc3cccc4ccc2c1c34`, for which the TGI in the test on SN12C renal, in the test on SW-620 colon, in the test with MOLT-4 leukemia, in the test with UO-31 renal, in the test on SF-295 CNS and with NCI-H522 lung was greater than 100 µM throughout. Besides, the TGI in the test on U251 CNS, in the test on HT29 colon, in the test on SNB-19 CNS, in the test on HOP-92 NSCLC and with EKVX NSCLC was greater than 100 µM throughout.
Take `Cc1ccc(Nc2cccc3c2C(=O)c2cccc(Nc4ccc(C)cc4S(=O)(=O)O)c2C3=O)c(S(=O)(=O)O)c1`: the TGI in the test on SN12C renal, in the test with SW-620 colon, in the test with MOLT-4 leukemia, in the test on UO-31 renal, in the test with HCT-116 colon and with NCI-H522 lung was greater than 100 µM throughout. Besides, the TGI with U251 CNS, with SNB-19 CNS and in the test on EKVX NSCLC was greater than 100 µM in each case.
On to `CCN(CC)C(=O)CCn1cc(F)c(=O)[nH]c1=O`, for which the TGI with OVCAR-5 ovarian, in the test with SN12C renal, in the test on SW-620 colon, with MOLT-4 leukemia, with UO-31 renal and in the test with SF-295 CNS was greater than 100 µM in each case. For the same molecule, the TGI in the test with HCT-116 colon, in the test with NCI-H522 lung, with U251 CNS, in the test on HT29 colon, with SNB-19 CNS and in the test on EKVX NSCLC was greater than 100 µM in each case.
Turning to `Clc1sc(Cl)c2c1[C@H](Cl)C[C@@H]2Cl`, the TGI in the test on OVCAR-5 ovarian is 81.2 µM; with SN12C renal it was 50.6 µM; in the test with MDA-MB-435, 40.2 µM; in the test on SW-620 colon, 19.6 µM; in the test with MDA-MB-231 breast, 90.5 µM; in the test with MOLT-4 leukemia, greater than 100 µM. Further, the TGI is 32.3 µM in the test on UO-31 renal; 37.4 µM in the test with NCI/ADR-RES ovarian; greater than 100 µM with SF-295 CNS; 20.9 µM in the test with HCT-116 colon; greater than 100 µM with MCF7 breast; 3.31 µM in the test on NCI-H522 lung. Also, the TGI in the test on U251 CNS is 48.2 µM; with HT29 colon, greater than 100 µM; in the test with HOP-92 NSCLC, 34.4 µM; with EKVX NSCLC it was greater than 100 µM.
`CNC(=O)C(C)Oc1ccc(OCC2CCCCC2)cc1` (configuration not stated): the TGI in the test with SN12C renal, with MOLT-4 leukemia, in the test on UO-31 renal, in the test with SF-295 CNS, in the test on HCT-116 colon and with NCI-H522 lung was greater than 100 µM each time. The TGI with U251 CNS, with HT29 colon and with SNB-19 CNS was greater than 100 µM each time.
